45 compounds from ChEMBL document CHEMBL4229418, “Design, synthesis and pharmacology of aortic-selective acyl-CoA: Cholesterol O-acyltransferase (ACAT/SOAT) inhibitors” (Bioorg Med Chem, 2018) can be followed below.

Assay [1] in a line: Inhibition of SOAT1 in arterial homogenates isolated from 1% cholesterol fed New Zealand white rabbit assessed as reduction in cholesteryl oleate formation incubated for 5 mins in presence of [14C]-oleoyl-CoA and BSA complex by TLC method. The assay is classed as tissue-based, Oryctolagus cuniculus.
Assay [2] is described as follows: Inhibition of SOAT2 in New Zealand white rabbit intestinal microsomes assessed as reduction in cholesteryl oleate formation incubated for 5 mins in presence of [14C]-oleoyl-CoA and BSA complex by TLC method. On the set-up: species or system Oryctolagus cuniculus, Intestine.
The species named for another assay is Oryctolagus cuniculus. The assay is described as follows: Selectivity ratio of IC50 for inhibition of SOAT2 in New Zealand white rabbit intestinal microsomes to IC50 for inhibition of SOAT1 in arterial homogenates isolated from 1% cholesterol fed New Zealand white rabbit.
For assay [3], the target named is T1, Sterol O-acyltransferase 1 (Mus musculus, UniProt Q61263).
T1 sequence (Q61263 whole entry): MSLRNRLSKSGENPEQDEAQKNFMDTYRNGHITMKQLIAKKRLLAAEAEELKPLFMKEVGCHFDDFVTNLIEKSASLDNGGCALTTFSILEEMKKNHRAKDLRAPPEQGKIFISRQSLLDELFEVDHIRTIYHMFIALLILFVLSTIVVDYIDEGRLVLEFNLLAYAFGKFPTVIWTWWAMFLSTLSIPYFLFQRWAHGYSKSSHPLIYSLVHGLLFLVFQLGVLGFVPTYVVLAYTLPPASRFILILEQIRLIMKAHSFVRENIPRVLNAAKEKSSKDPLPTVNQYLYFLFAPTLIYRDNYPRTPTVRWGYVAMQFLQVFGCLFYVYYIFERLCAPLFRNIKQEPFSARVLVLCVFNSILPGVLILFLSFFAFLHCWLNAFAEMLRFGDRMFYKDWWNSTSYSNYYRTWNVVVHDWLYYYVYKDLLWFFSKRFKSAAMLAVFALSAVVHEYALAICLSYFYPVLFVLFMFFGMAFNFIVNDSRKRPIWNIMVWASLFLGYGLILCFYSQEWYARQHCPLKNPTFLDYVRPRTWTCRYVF
The experiment in a line: Inhibition of ACAT1 in mouse J774 cells assessed as reduction in esterified cholesterol accumulation after 18 hrs in presence of 25-hydroxycholesterol. Format: cell-based.

Broadly, the IC50 is the concentration that inhibits the measured activity by half. As to `CC(C)c1cccc(C(C)C)c1NC(=O)CCCCCSc1nc2cc(C(=O)O)ccc2o1`, the results for the half-maximal inhibitory concentration (IC50) in assay [1], in assay [2] and in assay [3] were 3600 nM, 4500 nM and 11000 nM, respectively. In the assay listed under Oryctolagus cuniculus, the Ratio IC50 was found to be 1.3.
On to `CC(C)c1cccc(C(C)C)c1NC(=O)CCCSc1nc2ccccc2s1`, for which the figures for the half-inhibitory concentration (IC50) in assay [1] and in assay [2] were 28 nM and 100 nM, respectively. The Ratio IC50 in the assay listed under Oryctolagus cuniculus was determined as 3.6.
`CC(C)c1cccc(C(C)C)c1NC(=O)CCCCCCCCCCCCCCSc1nc2ccccc2[nH]1`: the IC50 is 120 nM in assay [1], 44 nM in assay [2] and 1700 nM in assay [3]. The Ratio IC50 in the assay listed under Oryctolagus cuniculus came to 0.4.
Consider `COC(=O)c1cccc2nc(SCCCCCC(=O)Nc3c(C(C)C)cccc3C(C)C)oc12`, for which the results for the concentration for half-maximal inhibition (IC50) in assay [1], in assay [2] and in assay [3] were 32 nM, 330 nM and 100 nM, respectively. Further, in the assay listed under Oryctolagus cuniculus, the Ratio IC50 turned out to be 10.3.
For `CC(C)c1cccc(C(C)C)c1NC(=O)CCCCCSc1nc2ccc(CN(C)C)cc2o1`, the IC50 came to 130 nM in assay [1], 370 nM in assay [2] and 2400 nM in assay [3]. The Ratio IC50 in the assay listed under Oryctolagus cuniculus worked out at 2.8.
As to `CC(C)c1cccc(C(C)C)c1NC(=O)CCCCCSc1nc2cccc(C(=O)O)c2o1`, the Ratio IC50 in the assay listed under Oryctolagus cuniculus came out at 1. In assay [3], the half-maximal inhibitory concentration (IC50) stood at 11000 nM.
Regarding `CC(C)c1cccc(C(C)C)c1NC(=O)CCCCCSc1nc2cc(C(F)(F)F)ccc2o1`, the IC50 in assay [1] came to 28 nM; in assay [2] it was 140 nM; in assay [3], 100 nM. Also, the Ratio IC50 in the assay listed under Oryctolagus cuniculus amounted to 5.
For `CC(C)c1cccc(C(C)C)c1NC(=O)CCCCCSc1nc2ccncc2o1`, the results for the concentration for half-maximal inhibition (IC50) in assay [1], in assay [2] and in assay [3] were 41 nM, 160 nM and 4100 nM, respectively. The Ratio IC50 in the assay listed under Oryctolagus cuniculus was 3.9.
Consider `CC(C)c1cccc(C(C)C)c1NC(=O)CCCCCSc1nc2ccccc2[nH]1`, for which the values for the IC50 in assay [1], in assay [2] and in assay [3] were 26 nM, 38 nM and 350 nM, respectively. The Ratio IC50 in the assay filed under Oryctolagus cuniculus was determined as 1.5.
Take `CC(C)c1cccc(C(C)C)c1NC(=O)CCCCCSc1nc2cccc(CO)c2o1`: the IC50 is 56 nM in assay [1], 110 nM in assay [2] and 2200 nM in assay [3]. The Ratio IC50 in the assay filed under Oryctolagus cuniculus amounted to 2.
For `CC(C)c1cccc(C(C)C)c1NC(=O)CCCCCCCCCCCCCCSc1nc2ccccc2s1`, the IC50 in assay [1] is 88 nM; in assay [2], 93 nM; in assay [3] it was 1800 nM. In addition, the Ratio IC50 in the assay filed under Oryctolagus cuniculus worked out at 1.1.
Consider `CC(C)c1cccc(C(C)C)c1NC(=O)CCCCCSc1nc2ncccc2o1`, for which the results for the IC50 in assay [1] and in assay [2] were 25 nM and 140 nM, respectively.
On to `CC(C)c1cccc(C(C)C)c1NC(=O)CCCCCSc1nc2ccc(C(=O)O)cc2o1`, for which the IC50 in assay [1] is 2100 nM; in assay [2], 5000 nM; in assay [3] it was 4400 nM. In addition, in the assay filed under Oryctolagus cuniculus, the Ratio IC50 came to 2.4.
For the compound `CCCCSc1nc2ccccc2o1`, in assay [1], the IC50 came to 26000 nM.
Consider `CC(C)c1cccc(C(C)C)c1NC(=O)CCCCCSc1nc2cc(N(C)C)ccc2o1`, for which the IC50 in assay [1] was found to be 43 nM; in assay [2], 250 nM; in assay [3], 500 nM. Moreover, in the assay listed under Oryctolagus cuniculus, the Ratio IC50 is 5.8.
With `CC(C)c1cccc(C(C)C)c1NC(=O)CSc1nc2ccccc2o1`, the IC50 turned out to be 35 nM in assay [1] and 200 nM in assay [2]. Also, the Ratio IC50 in the assay filed under Oryctolagus cuniculus turned out to be 5.7.
For the compound `CC(C)c1cccc(C(C)C)c1NC(=O)CCCCCSc1nc2c(CN(C)C)cccc2o1`, the IC50 in assay [1] was determined as 42 nM; in assay [2], 320 nM. Also, the Ratio IC50 in the assay filed under Oryctolagus cuniculus amounted to 7.6.
Turning to `CC(C)c1cccc(C(C)C)c1NC(=O)CCCCCSc1nc2c(O)cccc2o1`, the 50% inhibitory concentration (IC50) came out at 240 nM in assay [1], 240 nM in assay [2] and 8800 nM in assay [3]. The Ratio IC50 in the assay filed under Oryctolagus cuniculus is 1.
As for `CC(C)c1cccc(C(C)C)c1NC(=O)CCCCCCCSc1nc2ccccc2s1`, the IC50 in assay [1] stood at 7 nM; in assay [2] it was 36 nM; in assay [3] it was 59 nM. Moreover, the Ratio IC50 in the assay listed under Oryctolagus cuniculus amounted to 5.1.
Turning to `CC(C)c1cccc(C(C)C)c1NC(=O)CCCCCCCSc1nc2ccccc2[nH]1`, the concentration for half-maximal inhibition (IC50) worked out at 18 nM in assay [1] and 30 nM in assay [3]. Moreover, the Ratio IC50 in the assay listed under Oryctolagus cuniculus came to 1.7.
For the compound `CC(C)c1cccc(C(C)C)c1NC(=O)CCCCCCCCCSc1nc2ccccc2[nH]1`, the half-inhibitory concentration (IC50) is 19 nM in assay [1], 29 nM in assay [2] and 460 nM in assay [3]. Besides, in the assay listed under Oryctolagus cuniculus, the Ratio IC50 is 1.5.
Turning to `CC(C)c1cccc(C(C)C)c1NC(=O)CCCSc1nc2ccccc2[nH]1`, the IC50 in assay [1] stood at 300 nM; in assay [2], 800 nM; in assay [3] it was 3100 nM. In addition, the Ratio IC50 in the assay filed under Oryctolagus cuniculus turned out to be 2.7.
For the compound `CC(C)c1cccc(C(C)C)c1NC(=O)CCCCCCCCSc1nc2ccccc2s1`, the results for the IC50 in assay [1], in assay [2] and in assay [3] were 4 nM, 18 nM and 43 nM, respectively. For the same compound, the Ratio IC50 in the assay filed under Oryctolagus cuniculus was 4.5.
Consider `CC(C)c1cccc(C(C)C)c1NC(=O)CCCCCSc1nc2c(CO)cccc2o1`, for which the results for the concentration for half-maximal inhibition (IC50) in assay [1], in assay [2] and in assay [3] were 45 nM, 180 nM and 11000 nM, respectively. Moreover, the Ratio IC50 in the assay listed under Oryctolagus cuniculus turned out to be 4.
On the same counts, the results for `CC(C)c1cccc(C(C)C)c1NC(=O)CCCCCCSc1nc2ccccc2[nH]1` are 24 nM, 34 nM, 48 nM and 1.4.
`CC(C)c1cccc(C(C)C)c1NC(=O)CCCCCSc1nc2cc(CN(C)C)ccc2o1`: the IC50 in assay [1] was 250 nM; in assay [2], 170 nM; in assay [3] it was 1800 nM. Also, the Ratio IC50 in the assay filed under Oryctolagus cuniculus came to 0.7.
On the same counts, the results for `CC(C)c1cccc(C(C)C)c1NC(=O)CCCCCSc1nc2cccc(CN(C)C)c2o1` are 96 nM, 130 nM, 5600 nM and 1.4.
On the same counts, the results for `CC(C)c1cccc(C(C)C)c1NC(=O)CCCCCSc1nc2cc(O)ccc2o1` are 43 nM, 120 nM, 2800 nM and 2.8.
As to `COC(=O)c1ccc2oc(SCCCCCC(=O)Nc3c(C(C)C)cccc3C(C)C)nc2c1`, the IC50 stood at 70 nM in assay [1] and 210 nM in assay [2]. In addition, the Ratio IC50 in the assay filed under Oryctolagus cuniculus was 3.
As for `CC(C)c1cccc(C(C)C)c1NC(=O)CCCCSc1nc2ccccc2s1`, the IC50 in assay [1] is 62 nM; in assay [2] it was 130 nM; in assay [3], 57000 nM. The Ratio IC50 in the assay listed under Oryctolagus cuniculus came to 2.1.
On the same counts, the results for `CC(C)c1cccc(C(C)C)c1NC(=O)CCCCCSc1nc2ccc(CO)cc2o1` are 76 nM, 180 nM, 7000 nM and 2.4.
In the case of `CC(C)c1cccc(C(C)C)c1NC(=O)CCCCCCCCCSc1nc2ccccc2o1`, the values for the half-maximal inhibitory concentration (IC50) in assay [1], in assay [2] and in assay [3] were 6 nM, 14 nM and 100 nM, respectively. The Ratio IC50 in the assay listed under Oryctolagus cuniculus came out at 2.3.
As to `CC(C)c1cccc(C(C)C)c1NC(=O)CCCCCCCCSc1nc2ccccc2[nH]1`, the figures for the half-inhibitory concentration (IC50) in assay [1], in assay [2] and in assay [3] were 14 nM, 31 nM and 300 nM, respectively. Moreover, the Ratio IC50 in the assay listed under Oryctolagus cuniculus amounted to 2.2.
For `CCCCCCCN(CCCCCSc1nc(-c2ccccc2)c(-c2ccccc2)[nH]1)C(=O)Nc1ccc(F)cc1F` [LECIMIBIDE], the 50% inhibitory concentration (IC50) in assay [1] amounted to 36 nM; in assay [2], 20 nM; in assay [3], 820 nM.
For the compound `CC(C)c1cccc(C(C)C)c1NC(=O)CCSc1nc2ccccc2s1`, the IC50 in assay [1] came to 4 nM; in assay [2], 19 nM; in assay [3], 280 nM. Besides, in the assay filed under Oryctolagus cuniculus, the Ratio IC50 amounted to 4.8.
Take `CCCCCC(=O)Nc1c(C(C)C)cccc1C(C)C`: the IC50 in assay [1] amounted to 170 nM.
`CC(C)c1cccc(C(C)C)c1NC(=O)CCSc1nc2ccccc2o1`: the IC50 in assay [1] came out at 15 nM.
For `CC(C)c1cccc(C(C)C)c1NC(=O)CCCCCCSc1nc2ccccc2o1`, the values for the concentration for half-maximal inhibition (IC50) in assay [1] and in assay [2] were 5 nM and 30 nM, respectively. In addition, the Ratio IC50 in the assay listed under Oryctolagus cuniculus was determined as 6.
Regarding `CC(C)c1cccc(C(C)C)c1NC(=O)CCCSc1nc2ccccc2o1`, the values for the 50% inhibitory concentration (IC50) in assay [1] and in assay [3] were 36 nM and 2800 nM, respectively.
In the case of `CC(C)c1cccc(C(C)C)c1NC(=O)CCCCCSc1nc2cccnc2o1`, the concentration for half-maximal inhibition (IC50) in assay [1] was determined as 24 nM; in assay [2], 36 nM; in assay [3] it was 3000 nM. The Ratio IC50 in the assay filed under Oryctolagus cuniculus was 1.5.
Regarding `CC(C)c1cccc(C(C)C)c1NC(=O)CCCCCSc1nc2cnccc2o1`, the IC50 turned out to be 45 nM in assay [1], 150 nM in assay [2] and 2800 nM in assay [3]. Further, in the assay filed under Oryctolagus cuniculus, the Ratio IC50 was 3.3.
On the same counts, the results for `CC(C)c1cccc(C(C)C)c1NC(=O)CCCCCSc1nc2cc(CO)ccc2o1` are 64 nM, 74 nM, 1100 nM and 1.2.
As for `CC(C)c1cccc(C(C)C)c1NC(=O)CCCCCSc1nc2c(C(=O)O)cccc2o1`, the 50% inhibitory concentration (IC50) in assay [3] was found to be 11000 nM.
In the case of `CC(=O)Nc1c(C(C)C)cccc1C(C)C`, the IC50 in assay [1] came to 8600 nM.
`CSc1nc2ccccc2o1`: in assay [1], the IC50 was found to be 31000 nM.
